The target in assay [1] is T1, human T1R2 and human T1R3 (Homo sapiens, UniProt Q7RTX0+Q8TE23).
T1 construct: expressed in transfected cells; host or cells: cells (HEK inferred from the preceding sentence and b309)
T1 sequence (Q8TE23 20-839): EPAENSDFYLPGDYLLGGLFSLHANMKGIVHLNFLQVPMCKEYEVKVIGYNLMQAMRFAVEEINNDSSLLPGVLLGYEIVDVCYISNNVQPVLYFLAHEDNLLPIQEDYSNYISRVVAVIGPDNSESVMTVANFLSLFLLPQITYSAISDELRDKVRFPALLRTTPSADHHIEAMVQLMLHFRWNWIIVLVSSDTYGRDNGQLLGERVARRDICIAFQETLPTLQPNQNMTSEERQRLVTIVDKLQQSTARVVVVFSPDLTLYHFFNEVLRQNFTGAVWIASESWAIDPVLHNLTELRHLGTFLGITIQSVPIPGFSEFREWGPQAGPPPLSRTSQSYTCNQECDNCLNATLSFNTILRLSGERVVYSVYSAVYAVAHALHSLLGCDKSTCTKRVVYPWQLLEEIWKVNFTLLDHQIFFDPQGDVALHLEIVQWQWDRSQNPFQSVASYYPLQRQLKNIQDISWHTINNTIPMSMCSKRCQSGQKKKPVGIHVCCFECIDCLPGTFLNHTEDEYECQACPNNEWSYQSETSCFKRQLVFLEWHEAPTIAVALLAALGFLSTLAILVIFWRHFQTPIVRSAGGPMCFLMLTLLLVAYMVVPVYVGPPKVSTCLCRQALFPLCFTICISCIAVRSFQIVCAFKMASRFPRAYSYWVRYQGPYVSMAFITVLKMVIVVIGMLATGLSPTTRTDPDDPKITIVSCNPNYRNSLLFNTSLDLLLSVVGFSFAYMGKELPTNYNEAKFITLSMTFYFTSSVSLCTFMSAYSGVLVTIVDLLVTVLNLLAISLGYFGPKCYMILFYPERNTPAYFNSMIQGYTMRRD
T1 sequence (Q7RTX0 21-852): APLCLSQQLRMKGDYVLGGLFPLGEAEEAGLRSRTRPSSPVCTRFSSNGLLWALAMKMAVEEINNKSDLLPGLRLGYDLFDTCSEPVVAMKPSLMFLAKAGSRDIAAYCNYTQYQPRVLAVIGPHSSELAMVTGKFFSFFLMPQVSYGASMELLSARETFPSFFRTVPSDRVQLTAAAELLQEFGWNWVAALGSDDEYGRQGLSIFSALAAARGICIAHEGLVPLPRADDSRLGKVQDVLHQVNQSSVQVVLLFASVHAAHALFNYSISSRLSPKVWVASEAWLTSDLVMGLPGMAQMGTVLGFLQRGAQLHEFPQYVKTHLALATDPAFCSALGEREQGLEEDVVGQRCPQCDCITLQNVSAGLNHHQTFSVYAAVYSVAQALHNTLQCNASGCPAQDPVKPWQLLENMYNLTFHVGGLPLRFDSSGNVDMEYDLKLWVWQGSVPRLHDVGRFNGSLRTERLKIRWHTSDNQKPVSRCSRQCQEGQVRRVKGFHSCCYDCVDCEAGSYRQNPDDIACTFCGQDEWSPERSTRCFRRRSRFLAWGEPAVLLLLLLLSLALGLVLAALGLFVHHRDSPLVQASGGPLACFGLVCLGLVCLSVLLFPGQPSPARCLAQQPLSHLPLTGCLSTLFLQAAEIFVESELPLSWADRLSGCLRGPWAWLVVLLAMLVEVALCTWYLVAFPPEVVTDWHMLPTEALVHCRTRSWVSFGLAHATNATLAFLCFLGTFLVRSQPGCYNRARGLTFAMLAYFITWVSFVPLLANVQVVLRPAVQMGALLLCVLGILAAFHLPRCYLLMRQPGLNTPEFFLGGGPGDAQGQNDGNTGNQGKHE
Briefly: Cells transfected with human T1R2 and human T1R3. The assay is classed as cell-based. The method, then: (§1) We generated mice that were homozygous for the T1R2 KO allele, but instead expressed a human T1R2 transgene in the native “T1R2-cells”. A 12 kb genomic clone containing the T1R2 regulatory sequences was fused to a hT1R2 full length cDNA and introduced into T1R2 KO mice. Multiple independent lines were assayed for their selectivity and sensitivity to sweet tastants. To examine expression of hT1R2, we performed two-color fluorescent in situ hybridization experiments in transgenic animals carrying the wild type mT1R2 allele. […] Taken together, these experiments validate T1Rs as key determinants of differences in sweet taste selectivity and specificity between rodents and humans, and further substantiate T1R2+3, and T1R2-expressing cells, as an principal mediator of sweet taste in vivo. Finally, we propose that polymorphisms in both T1R2 and T1R3 are important determinants of human individual sweet taste preferences.
(§2) Modified HEK-293 cells (PEAK^rapid cells; Edge BioSystems, Md.) were grown, transfected with T1Rs and promiscuous G-proteins and assayed for functional responses to tastants by Ca-imaging essentially as described previously (Nelson, G. et al., Cell, 106, 381-390 (2001)). […] Acquisition and analysis of fluorescence images used TILL-Vision software.

Assay [2] relates to T1R2 KO mice expressing a human T1R2 gene. As to the kind of experiment: Behavioral taste responses of mice expressing a human T1R2 transgene. It counts as in vivo, mouse. To be noted: humanized T1R2 mice (T1R2 KO + hT1R2 transgene); monellin ~10 uM, thaumatin ~5 uM, aspartame 10 mM, glycyrrhizic acid 500 uM, neohesperidin dihydrochalcone 400 uM.
A further assay concerns humans. To be noted: sub-millimolar concentrations; cited from earlier work.
For the next assay, the system named is rodents. To be noted: 100 times higher concentrations than sweet to humans; cited from earlier work.
In assay [3] the target is T2, human T1R2 and mouse T1R3 GPCRs (UniProt Q8TE23+Q925D8).
T2 construct: expressed in transfected cells; host or cells: HEK cells
T2 sequence (Q8TE23 20-839): T1 sequence (Q8TE23 20-839)
T2 sequence (Q925D8 21-858): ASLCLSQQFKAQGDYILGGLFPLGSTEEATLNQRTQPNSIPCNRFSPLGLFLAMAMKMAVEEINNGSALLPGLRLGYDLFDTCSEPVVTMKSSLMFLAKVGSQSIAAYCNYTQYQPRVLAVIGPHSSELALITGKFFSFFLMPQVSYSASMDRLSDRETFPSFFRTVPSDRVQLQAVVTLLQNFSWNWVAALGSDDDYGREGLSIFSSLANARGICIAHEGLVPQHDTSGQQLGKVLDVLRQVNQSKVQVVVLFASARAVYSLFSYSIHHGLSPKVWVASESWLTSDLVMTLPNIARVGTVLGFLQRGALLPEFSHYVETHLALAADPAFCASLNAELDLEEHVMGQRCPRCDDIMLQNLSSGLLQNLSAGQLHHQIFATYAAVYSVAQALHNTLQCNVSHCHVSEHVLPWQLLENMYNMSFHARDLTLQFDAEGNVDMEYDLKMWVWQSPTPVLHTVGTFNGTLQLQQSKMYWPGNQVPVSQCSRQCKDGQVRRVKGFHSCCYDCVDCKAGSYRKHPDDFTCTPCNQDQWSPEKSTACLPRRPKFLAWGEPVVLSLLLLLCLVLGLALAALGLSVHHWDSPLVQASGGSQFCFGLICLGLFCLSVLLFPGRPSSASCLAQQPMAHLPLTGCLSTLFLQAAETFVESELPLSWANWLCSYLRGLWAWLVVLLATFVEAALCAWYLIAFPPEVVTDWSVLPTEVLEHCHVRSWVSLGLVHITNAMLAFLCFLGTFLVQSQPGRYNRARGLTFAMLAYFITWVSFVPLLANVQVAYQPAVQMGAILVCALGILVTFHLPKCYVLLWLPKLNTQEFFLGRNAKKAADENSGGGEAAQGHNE
As to the kind of experiment: HEK cells transfected with human T1R2 and mouse T1R3. It counts as cell-based. The procedure: as §1, §2

Turning to `COc1ccc(CCC(=O)c2c(O)cc(O[C@@H]3O[C@H](CO)[C@@H](O)[C@H](O)[C@H]3O[C@@H]3O[C@@H](C)[C@H](O)[C@@H](O)[C@H]3O)cc2O)cc1O` [neohesperidin dihydrochalcone], the cell response result in assay [1] is recorded as “robustly respond”; in assay [3], “do not respond”. Further, the “behavioral response to human sweet tastants” value in assay [2] is given as “still do not respond”. For the same molecule, the “sweet taste to humans” value in the assay with humans is on record as “taste sweet”. Also, the preference in rodents entry with rodents was “no preference”.

Source of the values: patent publication US7459277B2, “Mammalian T1R3 sweet taste receptors” (The Regents of the University of California, priority 2003, dated 2008).
